The source of these data is US10098900B2, “Pharmaceutical compositions and their use for treatment of cancer and autoimmune diseases” (ZHEJIANG DTRM BIOPHARMA CO. LTD., priority 2015, dated 2018).

Like-named read-outs stand apart in the source and are kept apart here.

One test deals with TMD-8 cell line. Briefly: Inhibition assay of tumor cell activity (cell viability), TMD-8. It counts as cell-based, human. The conditions noted are these: Homo sapiens, TMD8, 48 h, individual compound, read-out: Inh % on TMD-8 cell line (AVG). Here is the method: (§1) Inhibition Assay of Tumor Cell Activity:
(§2) Tumor cells (TMD-8, DoHH2 and WSU-DLCL2) were transferred and attached to 96-well plates. After one night, blank buffer and selected concentrations (0.01 nM-100 μM) of the test compound solution were added. After 48 hours incubation, CellTiter-Go was added to lyse the cells. Recording luminescent signal and calculate the percent inhibition of cell viability

The test system of test [1] is resistant WSU-DLCL2 cell line. Description: Inhibition assay of tumor cell activity (cell viability), WSU-DLCL2. It counts as cell-based. To be noted: Homo sapiens, WSUDLCL2, individual compound, read-out: Inh % on resistant WSU-DLCL2 cell line (AVG). Here is the method:
as §1, §2

For another test, the system named is TMD-8 lymphoma xenograft. Description: Inhibition of tumor growth in vivo, TMD-8 lymphoma xenograft SCID mouse model. The conditions noted are these: TMD-8, Oral, BID. Here is the method:
Inhibition Study of Tumor Growth In Vivo:
SCID mice or nude mice (weighing about 18 g at the beginning of the experiment) were randomly divided into groups by the software in order to achieve close average weights between groups and control the bias within the allowable range. The mice were injected BTK cell lines (TMD-8, WSU-DLCL2 and DoHH-2) for tumor formation. Inhibitors were administered orally once or twice a day, a total of 14 days, 21 days or 28 days. Body weights and tumor volume were recorded.
Xenograft Tumor Models Inoculated with TMD-8, or DoHH2, or WSU-DLCL2 Tumor Cell Lines:
TMD-8 is a sensitive human diffuse large B-cell lymphoma cell line, and DoHH2 is a more difficult to treat human follicular lymphoma cell line, while WSU-DLCL2 is a multi-drug resistant (MDR) human non-Hodgkin's lymphoma cell line. Drug combination therapies provide better efficacies in all three tumor models than single targeted agent alone.
The TMD-8, DoHH2, WSU-DLCL2 tumor cells were maintained in vitro as a suspension culture in RPMI-1640 medium supplemented with 10% heat inactivated fetal calf serum at 37° C. in an atmosphere of 5% CO2 in air. The tumor cells were routinely subcultured twice weekly. The cells growing in an exponential growth phase were harvested and counted for tumor inoculation. Each mouse was inoculated subcutaneously at the right flank with the tumor cells (10×10^6) in 0.2 ml of PBS with Matrigel (1:1) for tumor development. The treatments were started after the average tumor size reached approximately 100-200 mm^3. Each group consisted of 6-10 tumor-bearing mice. The testing article (vehicle, compound or combination) was orally administrated to the mice according to the predetermined doses for 14-days or 21-days. Animal body weight and tumor volume were measured every 2- or 3-days throughout the treatment.

Another test concerns DoHH-2 cell line. Description: Inhibition assay of tumor cell activity (cell viability), DoHH-2. It counts as cell-based. To be noted: Homo sapiens, individual compound, read-out: Inh % on DoHH-2 cell line (AVG). Here is the method:
as §1, §2

Another test concerns WSU-DLCL2 xenograft. To be noted: gavage to mice, 480 mg/kg/day, Knutson et al., cited from earlier work.

Regarding `Nc1cccc2c1C(=O)N(C1CCC(=O)NC1=O)C2=O` (stereo not shown) [Compound 15, Pomalidomide], the values for the inhibition at 0.01 µM (with TMD-8 cell line (0.01 uM (10 nM)); in test [1] (0.01 uM); in the test with DoHH-2 cell line (0.01 uM)) were 45.1%, -14.5% and -7.95%, respectively. Besides, the inhibition at 0.1 µM in the test with TMD-8 cell line (0.1 uM (100 nM)) is 61.7%; in test [1] (0.1 uM), -8.32%; in the test with DoHH-2 cell line (0.1 uM), 6.75%. Moreover, the inhibition at 1 µM in the test with TMD-8 cell line (1 uM (1,000 nM)) turned out to be 76.8%; in test [1] (1 uM), 46.6%; in the test on DoHH-2 cell line (1 uM) it was 51.3%. In addition, the “Antitumor effect (%)” value is 24% with TMD-8 lymphoma xenograft (FIG. 2, 14 days, 30 mg/kg) and −8% in the test with TMD-8 lymphoma xenograft (FIG. 3, 21 days, 10 mg/kg).
For the compound `CCN(c1cc(-c2ccc(CN3CCOCC3)cc2)cc(C(=O)NCc2c(C)cc(C)[nH]c2=O)c1C)C1CCOCC1` [EPZ-6438], the “effect against the WSU-DLCL tumor” value with WSU-DLCL2 xenograft is “achieved a similar effect”; in the test with WSU-DLCL2 xenograft (listed as EZ-6438), “inhibited tumor growth”.
